Results as given in PubChem BioAssay AID1963965 (Molecular Pharmacology Branch, DTP, NCI, 2024).

Tested on: 996289-038-R-J1-PDC spheroid viability
Assay: Anticancer human tumor 996289-038-R-J1-PDC patient-derived colon adenocarcinoma cell line growth inhibition [PI3K]
Conditions: spheroids with HUVEC and MSC; for IC50: curve of first compound; for viability, T/C: stronger effect = lower value
Procedure, shortened: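 Multi-cell spheroids combine tumor cells with HUVEC and human MSCs, treated with targeted agents alone or with inavolisib, alpelisib, duvelisib or copanlisib. Concentrations fall in half-log steps from at or near clinical Cmax, or from 10 microM where Cmax is unknown; viability read-out.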

[1] = second compound 0.0316 µM, first compound 0.0316 µM
[2] = second compound 0.0316 µM, first compound 0.1 µM
[3] = second compound 0.0316 µM, first compound 0.316 µM
[4] = second compound 0.0316 µM, first compound 1 µM
[5] = second compound 0.0316 µM, first compound 3.16 µM
[6] = second compound 0.0316 µM, first compound 10 µM
[7] = second compound 0.1 µM, first compound 0.0316 µM
[8] = second compound 0.1 µM, first compound 0.1 µM
[9] = second compound 0.1 µM, first compound 0.316 µM
[10] = second compound 0.1 µM, first compound 1 µM
[11] = second compound 0.1 µM, first compound 3.16 µM
[12] = second compound 0.1 µM, first compound 10 µM
[13] = second compound 0.316 µM, first compound 0.0316 µM
[14] = second compound 0.316 µM, first compound 0.1 µM
[15] = second compound 0.316 µM, first compound 0.316 µM
[16] = second compound 0.316 µM, first compound 1 µM
[17] = second compound 0.316 µM, first compound 3.16 µM
[18] = second compound 0.316 µM, first compound 10 µM
[19] = second compound 1 µM, first compound 0.0316 µM
[20] = second compound 1 µM, first compound 0.1 µM
[21] = second compound 1 µM, first compound 0.316 µM
[22] = second compound 1 µM, first compound 1 µM
[23] = second compound 1 µM, first compound 3.16 µM
[24] = second compound 1 µM, first compound 10 µM
[25] = second compound 3.16 µM, first compound 0.0316 µM
[26] = second compound 3.16 µM, first compound 0.1 µM
[27] = second compound 3.16 µM, first compound 0.316 µM
[28] = second compound 3.16 µM, first compound 1 µM
[29] = second compound 3.16 µM, first compound 3.16 µM
[30] = second compound 3.16 µM, first compound 10 µM
[31] = second compound 10 µM, first compound 0.0316 µM
[32] = second compound 10 µM, first compound 0.1 µM
[33] = second compound 10 µM, first compound 0.316 µM
[34] = second compound 10 µM, first compound 1 µM
[35] = second compound 10 µM, first compound 3.16 µM
[36] = second compound 10 µM, first compound 10 µM
[37] = second compound 0.0316 µM, first compound 0.00316 µM
[38] = second compound 0.0316 µM, first compound 0.01 µM
[39] = second compound 0.1 µM, first compound 0.00316 µM
[40] = second compound 0.1 µM, first compound 0.01 µM
[41] = second compound 0.316 µM, first compound 0.00316 µM
[42] = second compound 0.316 µM, first compound 0.01 µM
[43] = second compound 1 µM, first compound 0.00316 µM
[44] = second compound 1 µM, first compound 0.01 µM
[45] = second compound 3.16 µM, first compound 0.00316 µM
[46] = second compound 3.16 µM, first compound 0.01 µM
[47] = second compound 10 µM, first compound 0.00316 µM
[48] = second compound 10 µM, first compound 0.01 µM
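Note: spheroids exposed to compounds for seven days before viability read.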
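Throughout, for viability, T/C: luminescence used as a proxy for viable cell amount; percent viability relative to DMSO vehicle control as 100%.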

For `CC(C)NCC(C(=O)N1CCN(c2ncnc3c2C(C)CC3O)CC1)c1ccc(Cl)cc1` (stereo not drawn) + CC(Nc1ncnc2nc[nH]c12)c1cc2cccc(Cl)c2c(=O)n1-c1ccccc1, the IC50 (second compound 0.0316 µM) was > 10 µM, the IC50 (second compound 0.1 µM) was > 10 µM and the IC50 (second compound 0.316 µM) was > 10 µM. For the same compound, the IC50 (second compound 1 µM) was > 10 µM, the IC50 (second compound 3.16 µM) was > 10 µM and the IC50 (second compound 10 µM) was > 10 µM. The viability, T/C [1] was 86.1%, the viability, T/C [2] was 80.3% and the viability, T/C [3] was 100%. It also gave a viability, T/C [4] of 94.1%, a viability, T/C [5] of 87.4% and a viability, T/C [6] of 75.1%. It also gave a viability, T/C [7] of 96.5%, a viability, T/C [8] of 96.8% and a viability, T/C [9] of 89.9%. The viability, T/C [10] was 94.7%, the viability, T/C [11] was 87.1% and the viability, T/C [12] was 69.4%. For the same compound, the viability, T/C [13] was 94.9%, the viability, T/C [14] was 93.8% and the viability, T/C [15] was 95.2%. The viability, T/C [16] was 90%, the viability, T/C [17] was 92.2% and the viability, T/C [18] was 72.3%. It also gave a viability, T/C [19] of 86.4%, a viability, T/C [20] of 92.3% and a viability, T/C [21] of 90.8%. The viability, T/C [22] was 77.8%, the viability, T/C [23] was 101% and the viability, T/C [24] was 74.9%. For the same compound, the viability, T/C [25] was 88.1%, the viability, T/C [26] was 85% and the viability, T/C [27] was 85.4%. The viability, T/C [28] was 94.7%, the viability, T/C [29] was 94.9% and the viability, T/C [30] was 68.6%. It also gave a viability, T/C [31] of 88.8%, a viability, T/C [32] of 78.7% and a viability, T/C [33] of 85.5%. It also gave a viability, T/C [34] of 84.2%, a viability, T/C [35] of 101% and a viability, T/C [36] of 56.2%.

In the case of `CCN1CCN(Cc2ccc(Nc3ncc(F)c(-c4cc(F)c5nc(C)n(C(C)C)c5c4)n3)nc2)CC1` + CC(Nc1ncnc2nc[nH]c12)c1cc2cccc(Cl)c2c(=O)n1-c1ccccc1, the IC50 (second compound 0.0316 µM) is reported as > 1 µM, the IC50 (second compound 0.1 µM) is reported as > 1 µM and the IC50 (second compound 0.316 µM) is reported as > 1 µM. The IC50 (second compound 1 µM) was > 1 µM, the IC50 (second compound 3.16 µM) was > 1 µM and the IC50 (second compound 10 µM) was > 1 µM. It also gave a viability, T/C [37] of 111%, a viability, T/C [38] of 94.2% and a viability, T/C [1] of 92.2%. The viability, T/C [2] was 87.1%, the viability, T/C [3] was 79% and the viability, T/C [4] was 74.1%. For the same compound, the viability, T/C [39] was 102%, the viability, T/C [40] was 96.4% and the viability, T/C [7] was 91.8%. It also gave a viability, T/C [8] of 86.7%, a viability, T/C [9] of 76.7% and a viability, T/C [10] of 80%. It also gave a viability, T/C [41] of 96.2%, a viability, T/C [42] of 93.7% and a viability, T/C [13] of 89.1%. The viability, T/C [14] was 80.3%, the viability, T/C [15] was 75% and the viability, T/C [16] was 80.4%. For the same compound, the viability, T/C [43] was 104%, the viability, T/C [44] was 88.5% and the viability, T/C [19] was 86%. For the same compound, the viability, T/C [20] was 79.8%, the viability, T/C [21] was 76.8% and the viability, T/C [22] was 70.7%. It also gave a viability, T/C [45] of 98.1%, a viability, T/C [46] of 105% and a viability, T/C [25] of 79.4%. For the same compound, the viability, T/C [26] was 86.6%, the viability, T/C [27] was 81% and the viability, T/C [28] was 68.8%. For the same compound, the viability, T/C [47] was 82%, the viability, T/C [48] was 76% and the viability, T/C [31] was 82.4%. The viability, T/C [32] was 74.3%, the viability, T/C [33] was 71% and the viability, T/C [34] was 58.6%.

`C[C@@H](NC(=O)c1ncnc(N)c1Cl)c1ncc(C(=O)Nc2cc(C(F)(F)F)c(Cl)cn2)s1` + CC(Nc1ncnc2nc[nH]c12)c1cc2cccc(Cl)c2c(=O)n1-c1ccccc1 was tested, and the IC50 (second compound 0.0316 µM) was > 10 µM, the IC50 (second compound 0.1 µM) was > 10 µM and the IC50 (second compound 0.316 µM) was > 10 µM. For the same compound, the IC50 (second compound 1 µM) was > 10 µM, the IC50 (second compound 3.16 µM) was > 10 µM and the IC50 (second compound 10 µM) was > 10 µM. For the same compound, the viability, T/C [1] was 102%, the viability, T/C [2] was 102% and the viability, T/C [3] was 98.6%. For the same compound, the viability, T/C [4] was 128%, the viability, T/C [5] was 137% and the viability, T/C [6] was 126%. It also gave a viability, T/C [7] of 115%, a viability, T/C [8] of 85.2% and a viability, T/C [9] of 125%. It also gave a viability, T/C [10] of 120%, a viability, T/C [11] of 124% and a viability, T/C [12] of 111%. The viability, T/C [13] was 105%, the viability, T/C [14] was 103% and the viability, T/C [15] was 116%. The viability, T/C [16] was 108%, the viability, T/C [17] was 142% and the viability, T/C [18] was 130%. It also gave a viability, T/C [19] of 105%, a viability, T/C [20] of 108% and a viability, T/C [21] of 95.8%. For the same compound, the viability, T/C [22] was 108%, the viability, T/C [23] was 135% and the viability, T/C [24] was 120%. The viability, T/C [25] was 83.3%, the viability, T/C [26] was 93.9% and the viability, T/C [27] was 115%. It also gave a viability, T/C [28] of 119%, a viability, T/C [29] of 140% and a viability, T/C [30] of 116%. For the same compound, the viability, T/C [31] was 93.1%, the viability, T/C [32] was 102% and the viability, T/C [33] was 102%. The viability, T/C [34] was 98.1%, the viability, T/C [35] was 122% and the viability, T/C [36] was 101%.

For `Cn1ncnc1[C@H]1c2n[nH]c(=O)c3cc(F)cc(c23)N[C@@H]1c1ccc(F)cc1` + CC(Nc1ncnc2nc[nH]c12)c1cc2cccc(Cl)c2c(=O)n1-c1ccccc1, the IC50 (second compound 0.0316 µM) was > 0.1 µM, the IC50 (second compound 0.1 µM) was > 0.1 µM and the IC50 (second compound 0.316 µM) was > 0.1 µM. The IC50 (second compound 1 µM) was > 0.1 µM, the IC50 (second compound 3.16 µM) was > 0.1 µM and the IC50 (second compound 10 µM) was > 0.1 µM. It also gave a viability, T/C (second compound 0.0316 µM, first compound 0.000316 µM) of 97.1%, a viability, T/C (second compound 0.0316 µM, first compound 0.001 µM) of 99.7% and a viability, T/C [37] of 107%. It also gave a viability, T/C [38] of 104%, a viability, T/C [1] of 111% and a viability, T/C [2] of 94.3%. For the same compound, the viability, T/C (second compound 0.1 µM, first compound 0.000316 µM) was 107%, the viability, T/C (second compound 0.1 µM, first compound 0.001 µM) was 98.4% and the viability, T/C [39] was 96.1%. The viability, T/C [40] was 96.3%, the viability, T/C [7] was 122% and the viability, T/C [8] was 96.4%. For the same compound, the viability, T/C (second compound 0.316 µM, first compound 0.000316 µM) was 93.9%, the viability, T/C (second compound 0.316 µM, first compound 0.001 µM) was 102% and the viability, T/C [41] was 110%. The viability, T/C [42] was 100%, the viability, T/C [13] was 109% and the viability, T/C [14] was 89.8%. The viability, T/C (second compound 1 µM, first compound 0.000316 µM) was 95.1%, the viability, T/C (second compound 1 µM, first compound 0.001 µM) was 94.3% and the viability, T/C [43] was 103%. The viability, T/C [44] was 96.3%, the viability, T/C [19] was 103% and the viability, T/C [20] was 95.2%. The viability, T/C (second compound 3.16 µM, first compound 0.000316 µM) was 90.4%, the viability, T/C (second compound 3.16 µM, first compound 0.001 µM) was 109% and the viability, T/C [45] was 94.5%. The viability, T/C [46] was 96.3%, the viability, T/C [25] was 95.4% and the viability, T/C [26] was 94.8%. For the same compound, the viability, T/C (second compound 10 µM, first compound 0.000316 µM) was 90%, the viability, T/C (second compound 10 µM, first compound 0.001 µM) was 90.5% and the viability, T/C [47] was 96.8%. It also gave a viability, T/C [48] of 81.5%, a viability, T/C [31] of 94.6% and a viability, T/C [32] of 77.8%.
